# Assay results from PMC5522996, “Big conductance calcium‐activated potassium channel openers control spasticity without sedation” (British Journal of Pharmacology, 2017).
# Entries after “also recorded” stand apart in the source; their conditions may differ.
# How the values were obtained:
# normal animals = assay: Muscle tone in normal animals (resistance to flexion); format: in vivo, mouse; settings: 40 mg·kg^−1 p.o.
# BKCa channel = BKCa channel (Homo sapiens, UniProt Q12791); assay: Single‐channel inside‐out patch clamp, HCN‐2 neural cells; format: cell-based; settings: inside‐out patches
# Method: The human EA.hy926 endothelial cells (ATCC, Manassas, USA) were grown in DMEM containing 10% FCS and 1% HAT (5 mM hypoxanthine, 20 μM aminopterin and 0.8 mM thymidine) and were maintained in an incubator at 37°C in 5% CO2 atmosphere (Bondarenko et al., 2013). Human HNC‐2 neuronal cells were obtained from ATCC. For experiments, cells were plated on glass coverslips. Single‐channel recordings were obtained from excised inside‐out membrane patches in symmetrical solutions using the patch‐clamp technique. All patch‐clamp experiments were performed at room temperature with the use of a water hydraulic micromanipulator (WR‐6, Narishige, Japan). […] The pipettes were filled with 140 mM KCl, 10 mM HEPES, 1 mM MgCl2, 5 mM EGTA and […] CaCl2 buffered to pH 7.2 by adding KOH. Cells were super‐perfused with a bath solution containing 140 mM NaCl, 5 mM KCl, 1.2 mM MgCl2, 10 mM HEPES, 10 mM glucose and 2.4 mM CaCl2. […] Single‐channel activity was expressed as NPo, where N represents the number of functional ion channels in the membrane patch and Po represents the open channel probability determined from idealized traces (Bondarenko et al., 2011). […] Data were analysed by ANOVA, and statistical significance was evaluated using Scheffés post hoc test of the Prism 5 software for Windows (GraphPad Software).
# [1] = test system: primary porcine aorta endothelium; assay: Patch clamp of primary pig aorta endothelium; format: cell-based
# CYP450 2E1 = target: T1, CYP450 2E1 (Homo sapiens, UniProt P05181); assay: CYP450 inhibition of substrate binding; format: in vitro ADME; settings: read-out: IC50 Inhibition of substrate binding, VSN16R
# T1 construct: host or cells: BTI NN-5B1-4 or Sf9 insect cells
# Description: Inhibition of binding of either 3-cyano-7-ethoxycoumarin, dibenzylfluorescein or 7-benzyoxy-4-
# (trifluoromethyl) coumarin in human enzyme transfected BTI NN-5B1-4 cells or Sf9 insect cells or
# inhibition of dextromethorphan substrate to CYP450 2D6 in liver microsomes.
# β1 = target: T2, β1 (Homo sapiens, UniProt P08588); assay: Receptor binding profile of VSN16R; settings: 10µM VSN16R
# T2 construct: purchased Cerep; Chantest; DiscoveRx; Multispan; MDS Pharma Services
# BZD = assay: Receptor binding profile of VSN16R; design: species or system human; settings: 10µM VSN16R
# CCKA = target: T3, CCKA (Homo sapiens, UniProt P32238); assay: Receptor binding profile of VSN16R; settings: 10µM VSN16R
# T3 construct: purchased Cerep; Chantest; DiscoveRx; Multispan; MDS Pharma Services
# D2S = target: T4, D2S (Homo sapiens, UniProt P14416); assay: Receptor binding profile of VSN16R; settings: 10µM VSN16R
# T4 construct: purchased Cerep; Chantest; DiscoveRx; Multispan; MDS Pharma Services
# ETA = target: T5, ETA (Homo sapiens, UniProt P25101); assay: Receptor binding profile of VSN16R; settings: 10µM VSN16R
# T5 construct: purchased Cerep; Chantest; DiscoveRx; Multispan; MDS Pharma Services
# GABA (non-selective) = assay: Receptor binding profile of VSN16R; design: species or system human; settings: 10µM VSN16R
# CCR1 = target: T6, CCR1 (Homo sapiens, UniProt P32246); assay: Receptor binding profile of VSN16R; settings: 10µM VSN16R
# T6 construct: purchased Cerep; Chantest; DiscoveRx; Multispan; MDS Pharma Services
# H1 = target: T7, H1 (Homo sapiens, UniProt P35367); assay: Receptor binding profile of VSN16R; settings: 10µM VSN16R
# T7 construct: purchased Cerep; Chantest; DiscoveRx; Multispan; MDS Pharma Services
# MC4 = target: T8, MC4 (Homo sapiens, UniProt P32245); assay: Receptor binding profile of VSN16R; settings: 10µM VSN16R
# T8 construct: purchased Cerep; Chantest; DiscoveRx; Multispan; MDS Pharma Services
# M2 = target: T9, M2 (Homo sapiens, UniProt P08172); assay: Receptor binding profile of VSN16R; settings: 10µM VSN16R
# T9 construct: purchased Cerep; Chantest; DiscoveRx; Multispan; MDS Pharma Services
# M3 = target: T10, M3 (Homo sapiens, UniProt P20309); assay: Receptor binding profile of VSN16R; settings: 10µM VSN16R
# T10 construct: purchased Cerep; Chantest; DiscoveRx; Multispan; MDS Pharma Services
# Y1 = target: T11, Y1 (Homo sapiens, UniProt P25929); assay: Receptor binding profile of VSN16R; settings: 10µM VSN16R
# T11 construct: purchased Cerep; Chantest; DiscoveRx; Multispan; MDS Pharma Services
# Y2 = target: T12, Y2 (Homo sapiens, UniProt P49146); assay: Receptor binding profile of VSN16R; settings: 10µM VSN16R
# T12 construct: purchased Cerep; Chantest; DiscoveRx; Multispan; MDS Pharma Services
# κ = target: T13, κ (Homo sapiens, UniProt P41145); assay: Receptor binding profile of VSN16R; settings: 10µM VSN16R
# T13 construct: purchased Cerep; Chantest; DiscoveRx; Multispan; MDS Pharma Services
# μ = target: T14, μ (Homo sapiens, UniProt P35372); assay: Receptor binding profile of VSN16R; settings: 10µM VSN16R
# T14 construct: purchased Cerep; Chantest; DiscoveRx; Multispan; MDS Pharma Services
# 5-HT5A = target: T15, 5-HT5A (Homo sapiens, UniProt P47898); assay: Receptor binding profile of VSN16R; settings: 10µM VSN16R
# T15 construct: purchased Cerep; Chantest; DiscoveRx; Multispan; MDS Pharma Services
# K+V channel = assay: Receptor binding profile of VSN16R; design: species or system human; settings: 10µM VSN16R
# Na+ channel (site 2) = assay: Receptor binding profile of VSN16R; design: species or system human; settings: 10µM VSN16R
# GPR12 = target: T16, GPR12 (Homo sapiens, UniProt P47775); assay: Receptor binding profile of VSN16R; settings: 10µM VSN16R
# T16 construct: purchased Cerep; Chantest; DiscoveRx; Multispan; MDS Pharma Services
# EDG3 = target: T17, EDG3 (Homo sapiens, UniProt Q99500); assay: Receptor binding profile of VSN16R; settings: 10µM VSN16R
# T17 construct: purchased Cerep; Chantest; DiscoveRx; Multispan; MDS Pharma Services
# EDG5 = target: T18, EDG5 (Homo sapiens, UniProt O95136); assay: Receptor binding profile of VSN16R; settings: 10µM VSN16R
# T18 construct: purchased Cerep; Chantest; DiscoveRx; Multispan; MDS Pharma Services
# EDG7 = target: T19, EDG7 (Homo sapiens, UniProt Q9UBY5); assay: Receptor binding profile of VSN16R; settings: 10µM VSN16R
# T19 construct: purchased Cerep; Chantest; DiscoveRx; Multispan; MDS Pharma Services
# GABAA = assay: Receptor binding profile of VSN16R; design: species or system human; settings: 10µM VSN16R
# GlyR = assay: Receptor binding profile of VSN16R; design: species or system human; settings: 10µM VSN16R
# rat mesenteric artery = test system: rat mesenteric artery; design: method as in Hoi et al., 2007; settings: ref Hoi et al., 2007; read-out: EC50, vasorelaxation of rat mesenteric arteries; cited from earlier work
# GPR119 = GPR119 (Homo sapiens, UniProt Q8TDV5); assay: Receptor binding profile of VSN16R; design: purchased Cerep; Chantest; DiscoveRx; Multispan; MDS Pharma Services; settings: 10µM VSN16R
# T11 sequence (P25929 whole entry): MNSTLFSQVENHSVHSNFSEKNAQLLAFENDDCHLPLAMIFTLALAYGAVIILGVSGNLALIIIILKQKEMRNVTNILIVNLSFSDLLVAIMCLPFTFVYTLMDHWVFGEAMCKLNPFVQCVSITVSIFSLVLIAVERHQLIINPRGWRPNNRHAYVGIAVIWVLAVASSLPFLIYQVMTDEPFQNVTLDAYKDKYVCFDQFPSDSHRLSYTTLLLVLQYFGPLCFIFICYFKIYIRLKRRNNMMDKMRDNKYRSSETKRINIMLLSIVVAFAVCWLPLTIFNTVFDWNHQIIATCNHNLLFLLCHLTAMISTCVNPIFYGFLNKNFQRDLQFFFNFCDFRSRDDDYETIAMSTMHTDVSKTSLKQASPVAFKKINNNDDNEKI
# T10 sequence (P20309 whole entry): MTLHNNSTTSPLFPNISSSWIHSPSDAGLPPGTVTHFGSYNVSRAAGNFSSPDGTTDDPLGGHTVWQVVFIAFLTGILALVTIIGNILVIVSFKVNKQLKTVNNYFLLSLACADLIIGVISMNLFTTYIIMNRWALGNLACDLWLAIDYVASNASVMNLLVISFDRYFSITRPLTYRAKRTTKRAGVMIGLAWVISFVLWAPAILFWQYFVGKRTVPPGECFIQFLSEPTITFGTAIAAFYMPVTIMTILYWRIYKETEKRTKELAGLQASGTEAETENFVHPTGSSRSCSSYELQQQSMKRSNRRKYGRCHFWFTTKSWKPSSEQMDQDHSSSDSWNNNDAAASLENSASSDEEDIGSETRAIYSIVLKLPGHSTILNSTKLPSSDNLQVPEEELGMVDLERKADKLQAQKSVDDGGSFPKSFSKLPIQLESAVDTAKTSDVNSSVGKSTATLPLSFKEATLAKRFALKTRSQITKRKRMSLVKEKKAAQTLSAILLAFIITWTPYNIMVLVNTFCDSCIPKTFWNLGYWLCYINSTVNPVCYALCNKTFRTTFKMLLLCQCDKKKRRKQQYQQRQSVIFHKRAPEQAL
# T14 sequence (P35372 whole entry): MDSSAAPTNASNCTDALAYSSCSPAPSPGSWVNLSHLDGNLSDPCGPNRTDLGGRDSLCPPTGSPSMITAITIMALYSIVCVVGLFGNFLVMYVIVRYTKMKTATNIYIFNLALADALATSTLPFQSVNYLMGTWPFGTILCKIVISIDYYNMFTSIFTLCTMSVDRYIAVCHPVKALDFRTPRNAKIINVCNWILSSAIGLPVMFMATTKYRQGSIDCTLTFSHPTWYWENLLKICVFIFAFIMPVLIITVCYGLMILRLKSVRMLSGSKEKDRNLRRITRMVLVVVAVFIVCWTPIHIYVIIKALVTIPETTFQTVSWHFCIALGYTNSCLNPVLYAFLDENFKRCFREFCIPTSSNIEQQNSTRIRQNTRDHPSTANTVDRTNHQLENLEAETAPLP
# T4 sequence (P14416 1-414 isoform P14416-2): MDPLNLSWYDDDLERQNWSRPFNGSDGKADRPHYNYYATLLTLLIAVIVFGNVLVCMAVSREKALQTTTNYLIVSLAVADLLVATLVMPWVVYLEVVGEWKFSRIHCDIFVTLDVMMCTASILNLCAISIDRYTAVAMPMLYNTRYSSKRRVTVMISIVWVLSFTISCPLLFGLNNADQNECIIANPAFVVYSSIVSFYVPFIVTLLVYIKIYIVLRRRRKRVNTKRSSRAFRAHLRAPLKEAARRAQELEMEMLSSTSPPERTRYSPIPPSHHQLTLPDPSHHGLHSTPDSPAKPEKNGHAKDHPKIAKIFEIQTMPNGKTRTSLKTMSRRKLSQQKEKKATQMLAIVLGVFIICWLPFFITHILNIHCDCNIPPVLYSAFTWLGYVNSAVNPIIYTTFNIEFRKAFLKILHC
# T6 sequence (P32246 whole entry): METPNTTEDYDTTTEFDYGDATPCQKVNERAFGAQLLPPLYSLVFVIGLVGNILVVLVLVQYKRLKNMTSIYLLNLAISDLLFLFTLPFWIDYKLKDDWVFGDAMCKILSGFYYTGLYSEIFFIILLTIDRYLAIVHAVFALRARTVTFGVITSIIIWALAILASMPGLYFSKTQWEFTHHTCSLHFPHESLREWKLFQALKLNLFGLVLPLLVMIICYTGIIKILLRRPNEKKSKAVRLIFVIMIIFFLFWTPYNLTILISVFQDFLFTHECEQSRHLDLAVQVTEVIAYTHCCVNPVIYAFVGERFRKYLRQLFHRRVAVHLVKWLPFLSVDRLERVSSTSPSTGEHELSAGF
# T5 sequence (P25101 21-427): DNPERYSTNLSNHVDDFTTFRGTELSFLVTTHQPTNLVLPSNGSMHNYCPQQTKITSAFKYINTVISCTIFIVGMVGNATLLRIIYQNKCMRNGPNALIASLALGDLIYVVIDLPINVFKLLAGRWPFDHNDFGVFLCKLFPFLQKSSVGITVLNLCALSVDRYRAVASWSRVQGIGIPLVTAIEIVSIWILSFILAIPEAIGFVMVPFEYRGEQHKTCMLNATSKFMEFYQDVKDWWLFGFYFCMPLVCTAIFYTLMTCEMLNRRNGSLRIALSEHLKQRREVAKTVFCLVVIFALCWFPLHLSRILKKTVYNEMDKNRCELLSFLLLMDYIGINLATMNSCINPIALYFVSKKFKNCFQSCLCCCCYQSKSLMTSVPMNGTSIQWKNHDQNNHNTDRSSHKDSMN
# T16 sequence (P47775 whole entry): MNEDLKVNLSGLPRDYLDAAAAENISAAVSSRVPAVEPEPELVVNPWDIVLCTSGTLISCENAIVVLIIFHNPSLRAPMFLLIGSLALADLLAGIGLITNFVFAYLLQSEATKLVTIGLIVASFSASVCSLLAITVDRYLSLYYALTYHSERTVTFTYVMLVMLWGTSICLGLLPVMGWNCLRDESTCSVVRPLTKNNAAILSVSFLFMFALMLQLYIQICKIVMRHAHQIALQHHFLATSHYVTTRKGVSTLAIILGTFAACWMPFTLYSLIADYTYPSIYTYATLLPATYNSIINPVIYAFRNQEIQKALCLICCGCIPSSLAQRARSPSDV
# T15 sequence (P47898 whole entry): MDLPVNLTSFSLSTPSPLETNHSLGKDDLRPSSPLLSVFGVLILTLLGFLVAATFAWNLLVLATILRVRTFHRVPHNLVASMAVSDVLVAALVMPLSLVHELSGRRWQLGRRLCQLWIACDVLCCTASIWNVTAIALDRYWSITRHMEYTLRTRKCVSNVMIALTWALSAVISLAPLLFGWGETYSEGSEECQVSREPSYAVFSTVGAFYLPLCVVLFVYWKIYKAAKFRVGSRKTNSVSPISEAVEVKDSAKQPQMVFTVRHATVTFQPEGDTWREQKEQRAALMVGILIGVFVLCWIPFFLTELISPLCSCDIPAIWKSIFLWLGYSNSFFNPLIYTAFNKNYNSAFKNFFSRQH
# T12 sequence (P49146 whole entry): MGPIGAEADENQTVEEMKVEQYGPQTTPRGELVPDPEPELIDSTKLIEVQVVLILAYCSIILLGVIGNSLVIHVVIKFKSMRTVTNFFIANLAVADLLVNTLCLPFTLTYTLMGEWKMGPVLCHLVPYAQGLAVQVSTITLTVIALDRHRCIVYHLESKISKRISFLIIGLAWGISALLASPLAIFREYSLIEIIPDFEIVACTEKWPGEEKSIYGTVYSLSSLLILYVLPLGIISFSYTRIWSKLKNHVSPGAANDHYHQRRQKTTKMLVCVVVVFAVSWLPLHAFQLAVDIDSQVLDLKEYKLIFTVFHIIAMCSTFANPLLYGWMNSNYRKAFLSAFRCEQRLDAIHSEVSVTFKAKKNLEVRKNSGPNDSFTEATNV
# T18 sequence (O95136 whole entry): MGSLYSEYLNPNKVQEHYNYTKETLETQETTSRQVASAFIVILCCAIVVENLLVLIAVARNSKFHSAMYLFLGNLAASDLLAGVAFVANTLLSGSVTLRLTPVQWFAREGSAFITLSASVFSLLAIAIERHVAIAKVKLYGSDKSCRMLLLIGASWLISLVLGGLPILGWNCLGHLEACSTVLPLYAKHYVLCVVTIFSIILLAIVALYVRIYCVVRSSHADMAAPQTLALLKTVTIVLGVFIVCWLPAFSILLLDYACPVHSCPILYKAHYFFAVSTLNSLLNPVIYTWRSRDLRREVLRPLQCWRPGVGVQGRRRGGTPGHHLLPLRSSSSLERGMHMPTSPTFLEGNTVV
# T3 sequence (P32238 whole entry): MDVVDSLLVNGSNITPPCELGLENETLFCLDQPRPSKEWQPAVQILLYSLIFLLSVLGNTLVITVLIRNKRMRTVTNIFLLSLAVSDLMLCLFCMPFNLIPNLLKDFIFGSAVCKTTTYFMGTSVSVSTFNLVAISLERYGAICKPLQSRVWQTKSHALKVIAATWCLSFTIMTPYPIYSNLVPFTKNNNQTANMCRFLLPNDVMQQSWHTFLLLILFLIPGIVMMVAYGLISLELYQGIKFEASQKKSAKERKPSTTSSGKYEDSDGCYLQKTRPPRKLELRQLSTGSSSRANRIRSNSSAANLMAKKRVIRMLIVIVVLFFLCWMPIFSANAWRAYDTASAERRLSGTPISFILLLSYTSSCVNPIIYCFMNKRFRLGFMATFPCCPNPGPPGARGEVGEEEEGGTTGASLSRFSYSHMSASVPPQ
# T9 sequence (P08172 whole entry): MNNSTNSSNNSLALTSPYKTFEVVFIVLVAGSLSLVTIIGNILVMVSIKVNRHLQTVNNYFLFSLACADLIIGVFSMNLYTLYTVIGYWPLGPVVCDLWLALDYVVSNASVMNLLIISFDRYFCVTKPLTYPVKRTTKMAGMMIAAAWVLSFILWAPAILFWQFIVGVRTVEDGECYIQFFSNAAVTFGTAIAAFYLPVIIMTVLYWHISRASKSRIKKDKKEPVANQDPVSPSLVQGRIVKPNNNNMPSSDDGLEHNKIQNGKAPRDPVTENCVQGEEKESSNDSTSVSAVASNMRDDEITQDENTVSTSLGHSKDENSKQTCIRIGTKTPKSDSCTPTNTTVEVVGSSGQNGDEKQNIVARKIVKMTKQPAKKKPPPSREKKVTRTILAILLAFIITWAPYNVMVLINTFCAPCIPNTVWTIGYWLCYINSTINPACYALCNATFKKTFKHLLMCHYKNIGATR
smiles,measurement,setting,value
C[C@H](CO)NC(=O)c1cccc(/C=C\CCCC(=O)N(C)C)c1 [VSN16R],Change (increase) of muscle tone from baseline,normal animals,9.1 ± 6.3%
same,Single BKCa channel activity,BKCa channel,stimulated single BKCa channel activity
same,Effect on primary porcine aorta endothelium,[1],do not respond; also recorded: had no effects
same,IC50,CYP450 2E1,> 10000 nM
same,Activity,β1,Negligible Activity
same,Activity,BZD,Negligible Activity
same,Activity,CCKA,Negligible Activity
same,Activity,D2S,Negligible Activity
same,Activity,ETA,Negligible Activity
same,Activity,GABA (non-selective),Negligible Activity
same,Activity,CCR1,Negligible Activity
same,Activity,H1,Negligible Activity
same,Activity,MC4,Negligible Activity
same,Activity,M2,Negligible Activity
same,Activity,M3,Negligible Activity
same,Activity,Y1,Negligible Activity
same,Activity,Y2,Negligible Activity
same,Activity,κ,Negligible Activity
same,Activity,μ,Negligible Activity
same,Activity,5-HT5A,Negligible Activity
same,Activity,K+V channel,Negligible Activity
same,Activity,Na+ channel (site 2),Negligible Activity
same,Activity,GPR12,Negligible Activity
same,Activity,EDG3,Negligible Activity
same,Activity,EDG5,Negligible Activity
same,Activity,EDG7,Negligible Activity
same,Activity,GABAA,Negligible Activity
same,Activity,GlyR,Negligible Activity
same,EC50,rat mesenteric artery,110 nM
same,Activity,GPR119,Negligible Activity
